Data from patent publication US20230183179A1, “NOVEL CELL METABOLISM MODULATING COMPOUNDS AND USES THEREOF” (CRESCENTA BIOSCIENCES, priority 2020, published 2023).

How the values were obtained:
[1] = biological target: T1, His6 tagged human recombinant FABP4 (Homo sapiens, UniProt P15090); assay: FABP4 TR-FRET assay: displacement of fluorescent fatty acid BODIPY FL C12; conditions: inhibition of BODIPY FL C12 binding to His6-FABP4; 1.2 μL of 1.085 mM compound in DMSO per well; triplicates, mean percent inhibition
T1 construct: purchased Cayman Chemicals 10009549
T1 sequence (P15090 whole entry): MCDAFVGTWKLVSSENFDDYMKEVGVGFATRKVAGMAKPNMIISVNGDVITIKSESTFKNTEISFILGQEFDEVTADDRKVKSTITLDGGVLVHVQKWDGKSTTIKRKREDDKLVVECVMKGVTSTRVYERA
Summary of the method: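 TR-FRET displacement of BODIPY FL C12 from His6-FABP4 bound by Tb-anti-His6 antibody, in Tris pH 7.4 buffer with γ-globulins, NP-40 and DTT; compound stock 1.085 mM in DMSO. Read after 10 min at room temperature as 520/615 nm ratio; mean % inhibition versus DMSO from triplicates.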

[2] = system: differentiated 3T3-L1 mouse adipocyte cells; assay: Adipocyte glucose consumption in differentiated 3T3-L1 cells (colorimetric glucose assay of the medium); format: cell-based; conditions: 3T3-L1, 24 h, compound 10 μM, loss of glucose from culture medium, mean fold change (compound/DMSO)
Summary of the method: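 Differentiated 3T3-L1 mouse adipocytes (rosiglitazone/dexamethasone/IBMX/insulin induction, day 11) treated 24 h with compounds at 10 μM, 0.1% DMSO final. Medium glucose measured colorimetrically; consumption taken as glucose loss from medium versus cell-free control, expressed as mean fold change compound/DMSO ±SD.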

Row | SMILES | inhibition at 1085 µM (stock) [1] | fold induction at 10 µM [2]
1 | CCc1ccc2nc(N(C)CC(=O)O)cc(-c3cccc(C(N)=O)c3)c2c1 [2-{[4-(3-carbamoylphenyl)-6-ethylquinolin-2-yl](methyl)amino}acetic acid] | 78% | 1.07
2 | CCc1ccc2nc(OCC(=O)O)cc(-c3cccc(C(N)=O)c3)c2c1 [2-{[4-(3-carbamoylphenyl)-6-ethylquinolin-2-yl]oxy}acetic acid] | 30.4% | 0.93
3 | CCCCCc1ccc2nc(N(C)CC(=O)O)cc(-c3cccc(C(N)=O)c3)c2c1 [2-{[4-(3-carbamoylphenyl)-6-pentylquinolin-2-yl](methyl)amino}acetic acid] | 60.4% | 1.04
4 | CCCCCc1ccc2nc(OCC(=O)O)cc(-c3cccc(C(N)=O)c3)c2c1 [2-{[4-(3-carbamoylphenyl)-6-pentylquinolin-2-yl]oxy}acetic acid] | 74.2% | 1.02
5 | CCCc1ccc2nc(N(C)CC(=O)O)cc(-c3cccc(C(N)=O)c3)c2c1 [2-{[4-(3-carbamoylphenyl)-6-propylquinolin-2-yl](methyl)amino}acetic acid] | 48% | 1.07
6 | CCCc1ccc2nc(OCC(=O)O)cc(-c3cccc(C(N)=O)c3)c2c1 [2-{[4-(3-carbamoylphenyl)-6-propylquinolin-2-yl]oxy}acetic acid] | 42.9% | 1
7 | CCc1ccc2nc(N(C)CC(=O)O)cc(-c3cccc(C#N)c3)c2c1 [2-{[4-(3-cyanophenyl)-6-ethylquinolin-2-yl](methyl)amino}acetic acid] | 50.8% | 1.16
8 | CCCCCCc1ccc2nc(OCC(=O)O)cc(-c3cccc(C#N)c3)c2c1 [2-{[4-(3-cyanophenyl)-6-hexylquinolin-2-yl]oxy}acetic acid] | 39.4% | 1.02
9 | CCCCCCc1ccc2nc(OC(C)C(=O)O)cc(-c3cccc(C#N)c3)c2c1 (stereo not drawn) [2-{[4-(3-cyanophenyl)-6-hexylquinolin-2-yl]oxy}propanoic acid] | 3.3% | 1.19
10 | CCCCCc1ccc2nc(N(C)CC(=O)O)cc(-c3cccc(C#N)c3)c2c1 [2-{[4-(3-cyanophenyl)-6-pentylquinolin-2-yl](methyl)amino}acetic acid] | 65.1% | 1.23
11 | CCCCCc1ccc2nc(OCC(=O)O)cc(-c3cccc(C#N)c3)c2c1 [2-{[4-(3-cyanophenyl)-6-pentylquinolin-2-yl]oxy}acetic acid] | 10.6% | 1.01
12 | CCCCCCc1ccc2nc(N(C)CC(=O)O)cc(Oc3cccc(F)c3)c2c1 [2-{[4-(3-fluorophenoxy)-6-hexylquinolin-2-yl](methyl)amino}acetic acid] | 98.8% | 1.21
13 | CCCCCCCCc1ccc2nc(N(C)CC(=O)O)cc(Oc3cccc(F)c3)c2c1 [2-{[4-(3-fluorophenoxy)-6-octylquinolin-2-yl](methyl)amino}acetic acid] | 74.6% | 1.32
14 | CCCCCCc1ccc2nc(N(C)CC(=O)O)cc(N3CCC(F)(F)CC3)c2c1 [2-{[4-(4,4-difluoropiperidin-1-yl)-6-hexylquinolin-2-yl](methyl)amino}acetic acid] | 53.7% | 1.23
15 | CCCCCCCCc1ccc2nc(N(C)CC(=O)O)cc(Oc3ccc(F)cc3)c2c1 [2-{[4-(4-fluorophenoxy)-6-octylquinolin-2-yl](methyl)amino}acetic acid] | 78.7% | 1.41
16 | CCCCCCc1ccc2nc(N(CC(=O)O)CC(C)C)cc(-c3ccc(F)cc3)c2c1 [2-{[4-(4-fluorophenyl)-6-hexylquinolin-2-yl](2-methylpropyl)amino}acetic acid] | 78.7% | 1.18
17 | CCCCCCc1ccc2nc(N(C)CC(=O)O)cc(-c3ccc(F)cc3)c2c1 [2-{[4-(4-fluorophenyl)-6-hexylquinolin-2-yl](methyl)amino}acetic acid] | 81% | 1.3
18 | CCCCCCc1ccc2nc(N(CCC)CC(=O)O)cc(-c3ccc(F)cc3)c2c1 [2-{[4-(4-fluorophenyl)-6-hexylquinolin-2-yl](propyl)amino}acetic acid] | 57.1% | 1.13
19 | CCCCCCCCc1ccc2nc(N(CC(=O)O)CC(C)C)cc(-c3ccc(F)cc3)c2c1 [2-{[4-(4-fluorophenyl)-6-octylquinolin-2-yl](2-methylpropyl)amino}acetic acid] | 68% | 1.28
20 | CCCCCCCCc1ccc2nc(N(C)CC(=O)O)cc(-c3ccc(F)cc3)c2c1 [2-{[4-(4-fluorophenyl)-6-octylquinolin-2-yl](methyl)amino}acetic acid] | 53.8% | 1.28

Row | SMILES | inhibition at 1085 µM (stock) [1] | fold induction at 10 µM [2]
21 | CCCCCCCCc1ccc2nc(N(CCC)CC(=O)O)cc(-c3ccc(F)cc3)c2c1 [2-{[4-(4-fluorophenyl)-6-octylquinolin-2-yl](propyl)amino}acetic acid] | 53.1% | 1.2
22 | CCCCCc1ccc2nc(N(C)CC(=O)O)cc(-c3ccc(F)cc3)c2c1 [2-{[4-(4-fluorophenyl)-6-pentylquinolin-2-yl](methyl)amino}acetic acid] | 80.9% | 1.34
23 | CC(Oc1cc(-c2ccccc2)c2cc(CCc3ccccc3)ccc2n1)C(=O)O (stereo not drawn) [2-{[4-phenyl-6-(2-phenylethyl)quinolin-2-yl]oxy}propanoic acid] | 34.1% | 1.21
24 | CN(CC(=O)O)c1cc(-c2ccccc2)c2cc(OCc3ccccc3)ccc2n1 [2-{[6-(benzyloxy)-4-phenylquinolin-2-yl](methyl)amino}acetic acid] | 84.2% | 1.27
25 | CN(CC(=O)O)c1cc(-c2cccc(C(N)=O)c2)c2cc(Br)ccc2n1 [2-{[6-bromo-4-(3-carbamoylphenyl)quinolin-2-yl](methyl)amino}acetic acid] | 93.8% | 1.1
26 | NC(=O)c1cccc(-c2cc(OCC(=O)O)nc3ccc(Br)cc23)c1 [2-{[6-bromo-4-(3-carbamoylphenyl)quinolin-2-yl]oxy}acetic acid] | 19.1% | 1
27 | CN(CC(=O)O)c1cc(-c2cccc(C#N)c2)c2cc(Br)ccc2n1 [2-{[6-bromo-4-(3-cyanophenyl)quinolin-2-yl](methyl)amino}acetic acid] | 91.1% | 1.16
28 | N#Cc1cccc(-c2cc(OCC(=O)O)nc3ccc(Br)cc23)c1 [2-{[6-bromo-4-(3-cyanophenyl)quinolin-2-yl]oxy}acetic acid] | 19.9% | 0.99
29 | CCCCc1ccc2nc(N(C)CC(=O)O)cc(-c3ccccc3F)c2c1 [2-{[6-butyl-4-(2-fluorophenyl)quinolin-2-yl](methyl)amino}acetic acid] | 67% | 1.33
30 | CCCCc1ccc2nc(N(C)CC(=O)O)cc(-c3ccccc3O)c2c1 [2-{[6-butyl-4-(2-hydroxyphenyl)quinolin-2-yl](methyl)amino}acetic acid] | 93.2% | 1.19
31 | CCCCc1ccc2nc(N(C)CC(=O)O)cc(-c3ccccc3C)c2c1 [2-{[6-butyl-4-(2-methylphenyl)quinolin-2-yl](methyl)amino}acetic acid] | 99.7% | 1.27
32 | CCCCc1ccc2nc(N(C)CC(=O)O)cc(-c3cccc(C(N)=O)c3)c2c1 [2-{[6-butyl-4-(3-carbamoylphenyl)quinolin-2-yl](methyl)amino}acetic acid] | 26.1% | 1.13
33 | CCCCc1ccc2nc(OCC(=O)O)cc(-c3cccc(C(N)=O)c3)c2c1 [2-{[6-butyl-4-(3-carbamoylphenyl)quinolin-2-yl]oxy}acetic acid] | 54.5% | 1.15
34 | CCCCc1ccc2nc(N(C)CC(=O)O)cc(-c3cccc(C#N)c3)c2c1 [2-{[6-butyl-4-(3-cyanophenyl)quinolin-2-yl](methyl)amino}acetic acid] | 33.2% | 1.33
35 | CCCCc1ccc2nc(OCC(=O)O)cc(-c3cccc(C#N)c3)c2c1 [2-{[6-butyl-4-(3-cyanophenyl)quinolin-2-yl]oxy}acetic acid] | 36.2% | 1.12
36 | CCCCc1ccc2nc(OC(C)C(=O)O)cc(-c3cccc(C#N)c3)c2c1 (stereo not drawn) [2-{[6-butyl-4-(3-cyanophenyl)quinolin-2-yl]oxy}propanoic acid] | 12.7% | 1.26
37 | CCCCc1ccc2nc(N(C)CC(=O)O)cc(-c3cccc(F)c3)c2c1 [2-{[6-butyl-4-(3-fluorophenyl)quinolin-2-yl](methyl)amino}acetic acid] | 58.9% | 1.43
38 | CCCCc1ccc2nc(N(C)CC(=O)O)cc(-c3cccc(O)c3)c2c1 [2-{[6-butyl-4-(3-hydroxyphenyl)quinolin-2-yl](methyl)amino}acetic acid] | 83.8% | 1.28
39 | CCCCc1ccc2nc(N(C)CC(=O)O)cc(-c3cccc(C)c3)c2c1 [2-{[6-butyl-4-(3-methylphenyl)quinolin-2-yl](methyl)amino}acetic acid] | 82.4% | 1.4
